Counter-ions that a name gives are not always drawn.
Molecular target: T1, recombinant human baculovirus-expressed GST-tagged FASN (Homo sapiens, UniProt P49327)
T1 construct: GST
Assay: biochemical
Settings: not given

T1 sequence (P49327 whole entry): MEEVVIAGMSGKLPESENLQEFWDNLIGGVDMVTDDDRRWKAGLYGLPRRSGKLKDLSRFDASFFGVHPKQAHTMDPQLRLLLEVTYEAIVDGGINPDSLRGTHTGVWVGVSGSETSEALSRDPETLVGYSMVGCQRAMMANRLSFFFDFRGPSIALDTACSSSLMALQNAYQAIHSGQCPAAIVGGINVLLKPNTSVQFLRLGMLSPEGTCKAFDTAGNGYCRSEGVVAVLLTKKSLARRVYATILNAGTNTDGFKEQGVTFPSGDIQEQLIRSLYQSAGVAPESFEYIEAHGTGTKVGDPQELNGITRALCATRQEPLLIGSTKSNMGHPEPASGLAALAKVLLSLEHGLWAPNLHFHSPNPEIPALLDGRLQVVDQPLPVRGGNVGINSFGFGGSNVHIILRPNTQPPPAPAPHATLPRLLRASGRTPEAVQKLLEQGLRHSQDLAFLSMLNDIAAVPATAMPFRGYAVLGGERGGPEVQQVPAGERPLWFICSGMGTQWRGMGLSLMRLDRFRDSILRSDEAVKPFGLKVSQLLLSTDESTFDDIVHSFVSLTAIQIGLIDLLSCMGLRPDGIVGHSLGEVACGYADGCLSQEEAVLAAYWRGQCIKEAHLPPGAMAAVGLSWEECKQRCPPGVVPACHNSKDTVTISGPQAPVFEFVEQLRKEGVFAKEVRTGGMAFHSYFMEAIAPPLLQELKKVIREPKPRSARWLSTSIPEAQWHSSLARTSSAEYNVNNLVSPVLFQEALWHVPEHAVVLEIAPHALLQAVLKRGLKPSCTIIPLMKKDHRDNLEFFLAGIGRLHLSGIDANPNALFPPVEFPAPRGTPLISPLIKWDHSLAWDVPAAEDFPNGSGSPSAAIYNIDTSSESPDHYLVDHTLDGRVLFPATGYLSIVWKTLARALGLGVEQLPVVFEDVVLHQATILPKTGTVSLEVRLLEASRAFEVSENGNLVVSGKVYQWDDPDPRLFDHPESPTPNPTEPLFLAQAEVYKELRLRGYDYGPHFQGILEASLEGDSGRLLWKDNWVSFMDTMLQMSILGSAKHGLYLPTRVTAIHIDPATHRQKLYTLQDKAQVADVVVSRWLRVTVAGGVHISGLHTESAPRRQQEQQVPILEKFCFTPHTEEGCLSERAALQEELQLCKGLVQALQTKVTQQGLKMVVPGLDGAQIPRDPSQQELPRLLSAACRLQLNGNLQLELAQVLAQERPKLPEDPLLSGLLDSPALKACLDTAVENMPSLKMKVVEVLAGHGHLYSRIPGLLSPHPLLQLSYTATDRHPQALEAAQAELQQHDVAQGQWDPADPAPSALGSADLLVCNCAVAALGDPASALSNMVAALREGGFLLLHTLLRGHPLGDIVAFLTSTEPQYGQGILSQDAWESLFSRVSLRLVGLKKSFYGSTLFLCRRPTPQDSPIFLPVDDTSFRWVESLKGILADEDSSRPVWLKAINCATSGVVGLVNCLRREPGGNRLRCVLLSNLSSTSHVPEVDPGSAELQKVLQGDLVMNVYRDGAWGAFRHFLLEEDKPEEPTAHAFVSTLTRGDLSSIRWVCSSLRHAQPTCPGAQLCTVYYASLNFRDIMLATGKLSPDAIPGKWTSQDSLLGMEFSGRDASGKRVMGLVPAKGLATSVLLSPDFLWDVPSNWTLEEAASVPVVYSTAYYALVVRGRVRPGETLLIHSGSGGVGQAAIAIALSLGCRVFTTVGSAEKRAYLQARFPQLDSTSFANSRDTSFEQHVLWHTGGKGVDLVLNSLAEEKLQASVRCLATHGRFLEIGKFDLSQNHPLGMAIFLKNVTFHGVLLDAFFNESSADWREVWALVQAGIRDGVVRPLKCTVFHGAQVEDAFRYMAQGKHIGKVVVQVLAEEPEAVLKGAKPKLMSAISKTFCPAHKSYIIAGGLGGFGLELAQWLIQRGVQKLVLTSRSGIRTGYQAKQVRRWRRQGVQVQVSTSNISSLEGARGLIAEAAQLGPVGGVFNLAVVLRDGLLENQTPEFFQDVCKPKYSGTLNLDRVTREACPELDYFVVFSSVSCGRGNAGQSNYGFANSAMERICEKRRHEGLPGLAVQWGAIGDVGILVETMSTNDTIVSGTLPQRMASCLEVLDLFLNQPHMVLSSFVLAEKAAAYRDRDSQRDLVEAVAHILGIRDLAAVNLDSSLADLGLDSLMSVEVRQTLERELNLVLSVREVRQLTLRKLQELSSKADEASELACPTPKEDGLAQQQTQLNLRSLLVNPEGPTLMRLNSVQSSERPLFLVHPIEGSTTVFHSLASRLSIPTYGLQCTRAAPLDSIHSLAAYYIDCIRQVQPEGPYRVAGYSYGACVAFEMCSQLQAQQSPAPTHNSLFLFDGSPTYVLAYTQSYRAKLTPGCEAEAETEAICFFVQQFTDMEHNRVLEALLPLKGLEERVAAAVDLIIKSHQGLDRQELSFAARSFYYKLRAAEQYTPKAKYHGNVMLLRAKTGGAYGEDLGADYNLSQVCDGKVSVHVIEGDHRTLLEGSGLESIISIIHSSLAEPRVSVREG

Structure (SMILES)	IC50 [nM]
Cc1nccc2cc(-c3ccc4c(c3)COC3(CCN(C(=O)NO)CC3)O4)ccc12 [Example 199, 6-(1-Methyl-6-isoquinolyl)spiro[4H-1,3-benzodioxine-2,4′-piperidine]-1′-carbohydroxamic acid]	1000 to 10000
CCOC(=O)N1CCC2(CC1)OCc1cc(-c3ccc4cnc(C)cc4c3)ccc1O2 [Example 200, Ethyl 6-(3-methyl-6-isoquinolyl)spiro[4H-1,3-benzodioxine-2,4′-piperidine]-1′-carboxylate]	1000 to 10000
Cc1cc2cc(-c3ccc4c(c3)COC3(CCN(C(N)=O)CC3)O4)ccc2cn1 [Example 201, 6-(3-Methyl-6-isoquinolyl)spiro[4H-1,3-benzodioxine-2,4′-piperidine]-1′-carboxamide]	1000 to 10000
CCNC(=O)N1CCC2(CC1)OCc1cc(-c3ccc4cnc(C)cc4c3)ccc1O2 [Example 202, N-Ethyl-6-(3-methyl-6-isoquinolyl)spiro[4H-1,3-benzodioxine-2,4′-piperidine]-1′-carboxamide]	1 to 99
CCONC(=O)N1CCC2(CC1)OCc1cc(-c3ccc4cnc(C)cc4c3)ccc1O2 [Example 203, N-Ethoxy-6-(3-methyl-6-isoquinolyl)spiro[4H-1,3-benzodioxine-2,4′-piperidine]-1′-carboxamide]	1 to 99
Cc1cc2cc(-c3ccc4c(c3)COC3(CCN(C(=O)NO)CC3)O4)ccc2cn1 [Example 204, 6-(3-Methyl-6-isoquinolyl)spiro[4H-1,3-benzodioxine-2,4′-piperidine]-1′-carbohydroxamic acid]	100 to 999
CONC(=O)N1CCC2(CC1)OCc1cc(-c3ccc4cnc(C)cc4c3)ccc1O2 [Example 205, N-Methoxy-6-(3-methyl-6-isoquinolyl)spiro[4H-1,3-benzodioxine-2,4′-piperidine]-1′-carboxamide]	1 to 99
CCC(=O)N1CCC2(CC1)OCc1cc(-c3ccccn3)ccc1O2 [Example 218, 1-[6-(2-Pyridyl)spiro[4H-1,3-benzodioxine-2,4′-piperidine]-1′-yl]propan-1-one, HCl]	1000 to 10000
O=C(C1CC1)N1CCC2(CC1)OCc1cc(-c3ccccn3)ccc1O2 [Example 219, Cyclopropyl-[6-(2-pyridyl)spiro[4H-1,3-benzodioxine-2,4′-piperidine]-1′-yl]methanone, HCl]	1000 to 10000
O=C([C@H]1CCCO1)N1CCC2(CC1)OCc1cc(-c3ccccn3)ccc1O2 [Example 220, [6-(2-Pyridyl)spiro[4H-1,3-benzodioxine-2,4′-piperidine]-1′-yl]-[(2R)-tetrahydrofuran-2-yl]methanone, HCl]	100 to 999
CCC(=O)N1CCC2(CC1)OCc1cc(-c3cccnc3)ccc1O2 [Example 224, 1-[6-(3-Pyridyl)spiro[4H-1,3-benzodioxine-2,4′-piperidine]-1′-yl]propan-1-one, HCl]	1000 to 10000
O=C(C1CC1)N1CCC2(CC1)OCc1cc(-c3cccnc3)ccc1O2 [Example 225, Cyclopropyl-[6-(3-pyridyl)spiro[4H-1,3-benzodioxine-2,4′-piperidine]-1′-yl]methanone, HCl]	1000 to 10000
O=C([C@H]1CCCO1)N1CCC2(CC1)OCc1cc(-c3cccnc3)ccc1O2 [Example 229, [6-(3-Pyridyl)spiro[4H-1,3-benzodioxine-2,4′-piperidine]-1′-yl]-[(2R)-tetrahydrofuran-2-yl]methanone]	100 to 999
O=C(C1CC1)N1CCC2(CC1)OCc1cc(-c3ccncc3)ccc1O2 [Example 230, Cyclopropyl-[6-(4-pyridyl)spiro[4H-1,3-benzodioxine-2,4′-piperidine]-1′-yl]-methanone, HCl]	1000 to 10000
O=C([C@H]1CCCO1)N1CCC2(CC1)OCc1cc(-c3ccncc3)ccc1O2 [Example 231, [6-(4-Pyridyl)spiro[4H-1,3-benzodioxine-2,4′-piperidine]-1′-yl]-[(2R)-tetrahydrofuran-2-yl]methanone, HCl]	100 to 999
CCC(=O)N1CCC2(CC1)OCc1cc(-c3ccncc3)ccc1O2 [Example 232, 1-[6-(4-Pyridyl)spiro[4H-1,3-benzodioxine-2,4′-piperidine]-1′-yl]propan-1-one, HCl]	1000 to 10000

Same assay, conditions: 5 nM FASN, 150 μM NADPH, 10 μM acetyl-CoA, 25 μM malonyl-CoA, 90 minutes incubation; read-out: IC50 data for Compounds of Formula I, Activity

Structure (SMILES)	IC50 [nM]
Cc1cc2cc(-c3ccc4c(c3)CCC3(CCN(C(N)=O)CC3)O4)ccc2cn1 [Example 206, 6-(3-Methyl-6-isoquinolyl)spiro[chromane-2,4′-piperidine]-1′-carboxamide]	1000 to 10000
CCONC(=O)N1CCC2(CCc3cc(-c4ccc5cnc(C)cc5c4)ccc3O2)CC1 [Example 207, N-Ethoxy-6-(3-methyl-6-isoquinolyl)spiro[chromane-2,4′-piperidine]-1′-carboxamide]	1 to 99
CCNC(=O)N1CCC2(CCc3cc(-c4ccc5cnc(C)cc5c4)ccc3O2)CC1 [Example 208, N-Ethyl-6-(3-methyl-6-isoquinolyl)spiro[chromane-2,4′-piperidine]-1′-carboxamide]	100 to 999
CONC(=O)N1CCC2(CCc3cc(-c4ccc5cnc(C)cc5c4)ccc3O2)CC1 [Example 209, N-Methoxy-6-(3-methyl-6-isoquinolyl)spiro[chromane-2,4′-piperidine]-1′-carboxamide]	1 to 99
CONC(=O)N1CCC2(CCc3cc(-c4ccc5cccnc5c4OC)ccc3O2)CC1 [Example 210, N-Methoxy-6-(8-methoxy-7-quinolyl)spiro[chromane-2,4′-piperidine]-1′-carboxamide]	1 to 99
CCONC(=O)N1CCC2(CCc3cc(-c4ccc5cccnc5c4OC)ccc3O2)CC1 [Example 211, N-Ethoxy-6-(8-methoxy-7-quinolyl)spiro[chromane-2,4′-piperidine]-1′-carboxamide]	1 to 99
Cc1c(-c2ccc3c(c2)C(=O)CC2(CCN(C(N)=O)CC2)O3)ccc2cccnc12 [Example 212, 6-(8-methyl-7-quinolyl)-4-oxo-spiro[chromane-2,4′-piperidine]-1′-carboxamide]	100 to 999
Cc1c(-c2ccc3c(c2)C(O)CC2(CCN(C(N)=O)CC2)O3)ccc2cccnc12 (centres unmarked) [Example 213, 4-Hydroxy-6-(8-methyl-7-quinolyl)spiro[chromane-2,4′-piperidine]-1′-carboxamide]	100 to 999
CCC(=O)N1CCC2(CCc3cc(-c4ccccn4)ccc3O2)CC1 [Example 215, 1-[6-(2-Pyridyl)spiro[chromane-2,4′-piperidine]-1′-yl]propan-1-one, HCl]	1000 to 10000
O=C(C1CC1)N1CCC2(CCc3cc(-c4ccccn4)ccc3O2)CC1 [Example 216, Cyclopropyl-[6-(2-pyridyl)spiro[chromane-2,4′-piperidine]-1′-yl]methanone, HCl]	1000 to 10000
O=C([C@H]1CCCO1)N1CCC2(CCc3cc(-c4ccccn4)ccc3O2)CC1 [Example 217, [6-(2-Pyridyl)spiro[chromane-2,4′-piperidine]-1′-yl]-[(2R)-tetrahydrofuran-2-yl]methanone, HCl]	1000 to 10000
CCC(=O)N1CCC2(CCc3cc(-c4cccnc4)ccc3O2)CC1 [Example 221, 1-[6-(3-Pyridyl)spiro[chromane-2,4′-piperidine]-1′-yl]propan-1-one, HCl]	1000 to 10000
O=C(C1CC1)N1CCC2(CCc3cc(-c4cccnc4)ccc3O2)CC1 [Example 222, Cyclopropyl-[6-(3-pyridyl)spiro[chromane-2,4′-piperidine]-1′-yl]methanone, HCl]	1000 to 10000
O=C([C@H]1CCCO1)N1CCC2(CCc3cc(-c4cccnc4)ccc3O2)CC1 [Example 223, [6-(3-Pyridyl)spiro[chromane-2,4′-piperidine]-1′-yl]-[(2R)-tetrahydrofuran-2-yl]methanone, HCl]	100 to 999
CCC(=O)N1CCC2(CCc3cc(-c4ccncc4)ccc3O2)CC1 [Example 226, 1-[6-(4-Pyridyl)spiro[chromane-2,4′-piperidine]-1′-yl]propan-1-one, HCl]	1000 to 10000
O=C(C1CC1)N1CCC2(CCc3cc(-c4ccncc4)ccc3O2)CC1 [Example 227, Cyclopropyl-[6-(4-pyridyl)spiro[chromane-2,4′-piperidine]-1′-yl]methanone, HCl]	1000 to 10000
O=C([C@H]1CCCO1)N1CCC2(CCc3cc(-c4ccncc4)ccc3O2)CC1 [Example 228, [6-(4-Pyridyl)spiro[chromane-2,4′-piperidine]-1′-yl]-[(2R)-tetrahydrofuran-2-yl]methanone, HCl]	100 to 999
Cc1nccc2cc(-c3cc4c(cc3F)OC3(CC4)CCN(C(N)=O)CC3)ccc12 [Example 234, 7-Fluoro-6-(1-methyl-6-isoquinolyl)spiro[chromane-2,4′-piperidine]-1′-carboxamide]	1000 to 10000
NC(=O)N1CCC2(CCc3cc(-c4cc5ccccc5o4)ccc3O2)CC1 [Example 235, 6-(Benzofuran-2-yl)spiro[chromane-2,4′-piperidine]-1′-carboxamide]	1000 to 10000
NC(=O)N1CCC2(CCc3cc(-c4cc5ccccc5[nH]4)ccc3O2)CC1 [Example 236, 6-(1H-Indol-2-yl)spiro[chromane-2,4′-piperidine]-1′-carboxamide]	1000 to 10000
Cc1c(-c2cc(F)c3c(c2)CCC2(CCN(C(N)=O)CC2)O3)ccc2cccnc12 [Example 237, 8-Fluoro-6-(8-methyl-7-quinolyl)spiro[chromane-2,4′-piperidine]-1′-carboxamide]	1 to 99
CONC(=O)N1CCC2(CCc3cc(-c4ccc5cccnc5c4C)cc(F)c3O2)CC1 [Example 238, 8-Fluoro-N-methoxy-6-(8-methyl-7-quinolyl)spiro[chromane-2,4′-piperidine]-1′-carboxamide]	1 to 99
Cc1nccc2cc(-c3ccc4c(c3F)CCC3(CCN(C(N)=O)CC3)O4)ccc12 [Example 239, 5-Fluoro-6-(1-methyl-6-isoquinolyl)spiro[chromane-2,4′-piperidine]-1′carboxamide]	1000 to 10000
Cc1c(-c2ccc3cccnc3c2C)ccc2c1CCC1(CCN(C(N)=O)CC1)O2 [Example 240, 5-Methyl-6-(8-methyl-7-quinolyl)spiro[chromane-2,4′-piperidine]-1′-carboxamide]	1000 to 10000
Cc1c(-c2ccc3c(C)nccc3c2)ccc2c1CCC1(CCN(C(N)=O)CC1)O2 [Example 241, 5-methyl-6-(1-methyl-6-isoquinolyl)spiro[chromane-2,4′-piperidine]-1′-carboxamide]	1000 to 10000

From patent US12448392B2, “Spiropiperidine derivatives” (89BIO LTD, priority 2016, dated 2025)
